Measured values: US20150299125A1, “PRODRUG BIPYRIDYLAMINOPYRIDINES AS SYK INHIBITORS” (MERCK SHARP & DOHME CORP., priority 2012, published 2015)

Each molecule was assayed against T1, recombinant human GST-Syk (Homo sapiens, UniProt P43405) (assay: Homogeneous Time-Resolved Fluorescence (HTRF) assay for the recombinant human Syk enzyme). Settings: recombinant human GST-Syk 5 pM, ATP 25 μM, read-out: IC50.
T1 construct: purchased Carna Biosciences 08-176
Format: biochemical
Protocol: Syk inhibition of the compounds of Formula (I) may be determined using the following assay protocol: Homogeneous Time-Resolved Fluorescence (HTRF) Assay for the Recombinant Human Syk Enzyme: A recombinant GST-hSyk fusion protein was used to measure potency of compounds to inhibit human Syk activity. […] Final volume of the reaction was 10 μL. Phosphorylation of the peptide was allowed to proceed for 45' at room temperature. To quench the reaction and detect the phosphorylated product, 2 nM of a Europium-anti-phosphotyrosine antibody (Perkin Elmer #AD0161) and 70 nM SA-APC (Perkin-Elmer #CR130-100) were added together in 15 mM Tris pH 7.5, 40 mM EDTA, 0.01% tween 20. Final volume of the quenching solution was 10 μL. The resulting HTRF signal was measured after 30 minutes on a EnVision (Perkin-Elmer) reader using a time-resolved fluorescence protocol.

Compound	IC50
Cc1cc(Nc2cc(C(F)F)ccn2)nc(-c2ccc([C@](C)(O)[C@H]3CC[C@H](C(=O)OC(C)OC(=O)c4cnn(C)c4)CC3)nc2)c1 (single isomer, unassigned) [Example 3-2a]	19.1 nM
Cc1cc(Nc2cc(C(F)F)ccn2)nc(-c2ccc([C@](C)(O)[C@H]3CC[C@H](C(=O)OC(C)OC(=O)c4cnn(C)c4)CC3)nc2)c1 (single isomer, unassigned) [Example 3-2b]	22.4 nM
COCCN(C)C(=O)OC(C)OC(=O)[C@H]1CC[C@H]([C@@](C)(O)c2ccc(-c3cc(C)cc(Nc4cc(C(F)F)ccn4)n3)cn2)CC1 (single isomer, unassigned) [Example 4-1b]	12.9 nM
Cc1cc(Nc2cc(C(F)F)ccn2)nc(-c2ccc([C@](C)(O)[C@H]3CC[C@H](C(=O)OCOC(=O)OCC[S+](C)[O-])CC3)nc2)c1 (single isomer, unassigned) [Example 7-5]	0.6 nM
Cc1cc(Nc2cc(C(F)F)ccn2)nc(-c2ccc([C@](C)(O)[C@H]3CC[C@H](C(=O)OCC(C)(C)O)CC3)nc2)c1 [Example 1-1, 2-Hydroxy-2-methylpropyl trans-4-[(1R)-1-(6-{[4-(difluoromethyl)pyridin-2-yl]amino}-4-methyl-2,3′-bipyridin-6′-yl)-1-hydroxyethyl]cyclohexanecarboxylate]	8.1 nM
Cc1cc(Nc2cc(C(F)F)ccn2)nc(-c2ccc([C@](C)(O)[C@H]3CC[C@H](C(=O)OC[C@@H](O)CO)CC3)nc2)c1 [Example 1-3, (2S)-2,3-Dihydroxypropyl trans-4-[(1R)-1-(6-{[4-(difluoromethyl)pyridin-2-yl]amino}-4-methyl-2,3′-bipyridin-6′-yl)-1-hydroxyethyl]cyclohexanecarboxylate]	2.5 nM
Cc1cc(Nc2cc(C(F)F)ccn2)nc(-c2ccc([C@](C)(O)[C@H]3CC[C@H](C(=O)OC[C@H]4OC(O)[C@H](O)[C@@H](O)[C@@H]4O)CC3)nc2)c1 (stereo partly drawn) [Example 1-4, 6-O-({trans-4-[(1R)-1-(6-{[4-(difluoromethyl)pyridin-2-yl]amino}-4-methyl-2,3′-bipyridin-6′-yl)-1-hydroxyethyl]cyclohexyl}carbonyl)-D-glucopyranose]	0.8 nM
Cc1cc(Nc2cc(C(F)F)ccn2)nc(-c2ccc([C@](C)(O)[C@H]3CC[C@H](C(=O)Oc4ccccc4)CC3)nc2)c1 [Example 1-6, Phenyl trans-4-[(1R)-1-(6-{[4-(difluoromethyl)pyridin-2-yl]amino}-4-methyl-2,3′-bipyridin-6′-yl)-1-hydroxyethyl]cyclohexanecarboxylate]	9.7 nM
CSCCOC(=O)[C@H]1CC[C@H]([C@@](C)(O)c2ccc(-c3cc(C)cc(Nc4cc(C(F)F)ccn4)n3)cn2)CC1 [Example 1-7, 2-(methylsulfanyl)ethyl trans-4-[(1R)-1-(6-{[4-(difluoromethyl)pyridin-2-yl]amino}-4-methyl-2,3′-bipyridin-6′-yl)-1-hydroxyethyl] cyclohexanecarboxylate]	18.2 nM
Cc1cc(Nc2cc(C(F)F)ccn2)nc(-c2ccc([C@](C)(O)[C@H]3CC[C@H](C(=O)OCC[N+](C)(C)C)CC3)nc2)c1 [Example 1-10, 2-[({trans-4-[(1R)-1-(6-{[4-(difluoromethyl)pyridin-2-yl]amino}-4-methyl-2,3′-bipyridin-6′-yl)-1-hydroxyethyl]cyclohexyl}carbonyl)oxy]-N,N,N-trimethylethanaminium]	1.7 nM
COc1ccc(OC(=O)[C@H]2CC[C@H]([C@@](C)(O)c3ccc(-c4cc(C)cc(Nc5cc(C(F)F)ccn5)n4)cn3)CC2)cc1 [Example 1-28, 4-methoxyphenyl trans-4-[(1R)-1-(6-{[4-(difluoromethyl)pyridin-2-yl]amino}-4-methyl-2,3′-bipyridin-6′-yl)-1-hydroxyethyl] cyclohexanecarboxylate]	7.2 nM
Cc1cc(Nc2cc(C(F)F)ccn2)nc(-c2ccc([C@](C)(O)[C@H]3CC[C@H](C(=O)OCOC(=O)OCCOCc4ccccc4)CC3)nc2)c1 [Example 2-3, ({[2-(benzyloxy)ethoxy]carbonyl}oxy) methyl trans-4-[(1R)-1-(6-{[4-(difluoromethyl)pyridin-2-yl]amino}-4-methyl-2,3′-bipyridin-6′-yl)-1-hydroxyethyl]cyclo hexanecarboxylate]	6.2 nM
CCOCCOCCOCCOC(=O)OCOC(=O)[C@H]1CC[C@H]([C@@](C)(O)c2ccc(-c3cc(C)cc(Nc4cc(C(F)F)ccn4)n3)cn2)CC1 [Example 2-5, 3-oxo-2,4,7,10,13-pentaoxapentadec-1-yl trans-4-[(1R)-1-(6-{[4-(difluoromethyl)pyridin-2-yl]amino}-4-methyl-2,3′-bipyridin-6′-yl)-1-hydroxyethyl]cyclo hexanecarboxylate]	7.5 nM
CCOCC(COCC)OC(=O)OCOC(=O)[C@H]1CC[C@H]([C@@](C)(O)c2ccc(-c3cc(C)cc(Nc4cc(C(F)F)ccn4)n3)cn2)CC1 [Example 2-8, ({[2-ethoxy-1-(ethoxymethyl)ethoxy]carbonyl}oxy) methyl trans-4-[(1R)-1-(6-{[4-(difluoromethyl)pyridin-2-yl]amino}-4-methyl-2,3′-bipyridin-6′-yl)-1-hydroxyethyl]cyclo hexanecarboxylate]	22.8 nM
CSCCOC(=O)OCOC(=O)[C@H]1CC[C@H]([C@@](C)(O)c2ccc(-c3cc(C)cc(Nc4cc(C(F)F)ccn4)n3)cn2)CC1 [Example 2-10, ({[2-(methylsulfanyl)ethoxy]carbonyl}oxy) methyl trans-4-[(1R)-1-(6-{[4-(difluoromethyl)pyridin-2-yl]amino}-4-methyl-2,3′-bipyridin-6′-yl)-1-hydroxyethyl]cyclo hexanecarboxylate]	< 0.5 nM
Cc1cc(Nc2cc(C(F)F)ccn2)nc(-c2ccc([C@](C)(O)[C@H]3CC[C@H](C(=O)OCOC(=O)OCCC(=O)N(C)C)CC3)nc2)c1 [Example 2-12, ({[3-(dimethylamino)-3-oxopropoxy]carbonyl}oxy)methyl trans-4-[(1R)-1-(6-{[4-(difluoromethyl)pyridin-2-yl]amino}-4-methyl-2,3′-bipyridin-6′-yl)-1-hydroxyethyl]cyclo hexanecarboxylate]	1.5 nM
Cc1cc(Nc2cc(C(F)F)ccn2)nc(-c2ccc([C@](C)(O)[C@H]3CC[C@H](C(=O)OCOC(=O)OCc4nccn4C)CC3)nc2)c1 [Example 2-13, ({[(1-methyl-1H-imidazol-2-yl)methoxy]carbonyl}oxy)methyl trans-4-[(1R)-1-(6-{[4-(difluoromethyl)pyridin-2-yl]amino}-4-methyl-2,3′-bipyridin-6′-yl)-1-hydroxyethyl]cyclo hexanecarboxylate]	34.6 nM
CCOCCOCCOC(=O)OC(C)OC(=O)[C@H]1CC[C@H]([C@@](C)(O)c2ccc(-c3cc(C)cc(Nc4cc(C(F)F)ccn4)n3)cn2)CC1 (stereo partly drawn) [Example 2-15, 1-methyl-3-oxo-2,4,7,10-tetraoxadodec-1-yl trans-4-[(1R)-1-(6-{[4-(difluoromethyl)pyridin-2-yl]amino}-4-methyl-2,3′-bipyridin-6′-yl)-1-hydroxyethyl]cyclo hexanecarboxylate]	32.9 nM
Cc1cc(Nc2cc(C(F)F)ccn2)nc(-c2ccc([C@](C)(O)[C@H]3CC[C@H](C(=O)OC(C)OC(=O)c4cnn(C)c4)CC3)nc2)c1 (stereo partly drawn) [Example 3-2, 1-[({Trans-4-[(1R)-1-(6-{[4-(difluoromethyl)pyridin-2-yl]amino}-4-methyl-2,3′-bipyridin-6′-yl)-1-hydroxyethyl]cyclohexyl}carbonyl)oxy]ethyl 1-methyl-1H-pyrazole-4-carboxylate]	1.9 nM
Cc1cc(Nc2cc(C(F)F)ccn2)nc(-c2ccc([C@](C)(O)[C@H]3CC[C@H](C(=O)OCOC(=O)C(C)(C)O)CC3)nc2)c1 [Example 3-3, [(2-Hydroxy-2-methylpropanoyl)oxy]methyl trans-4-[(1R)-1-(6-{[4-(difluoromethyl)pyridin-2-yl]amino}-4-methyl-2,3′-bipyridin-6′-yl)-1-hydroxyethyl]cyclohexanecarboxylate]	2.3 nM
Cc1cc(Nc2cc(C(F)F)ccn2)nc(-c2ccc([C@](C)(O)[C@H]3CC[C@H](C(=O)OCOC(=O)CO)CC3)nc2)c1 [Example 3-5, [(hydroxyacetyl)oxy] methyl trans-4-[(1R)-1-(6-{[4-(difluoromethyl)pyridin-2-yl]amino}-4-methyl-2,3′-bipyridin-6′-yl)-1-hydroxyethyl]cyclohexane carboxylate]	< 0.5 nM
CC(=O)N[C@@H](CC(C)C)C(=O)OCOC(=O)[C@H]1CC[C@H]([C@@](C)(O)c2ccc(-c3cc(C)cc(Nc4cc(C(F)F)ccn4)n3)cn2)CC1 [Example 3-7, [({trans-4-[(1R)-1-(6-{[4-(difluoromethyl)pyridin-2-yl]amino}-4-methyl-2,3′-bipyridin-6′-yl)-1-hydroxyethyl]cyclohexyl}carbonyl)oxy]methyl N-acetyl-L-leucinate]	12.7 nM
Cc1cc(Nc2cc(C(F)F)ccn2)nc(-c2ccc([C@](C)(O)[C@H]3CC[C@H](C(=O)OCOC(=O)c4cnn(C)c4)CC3)nc2)c1 [Example 3-8, [({trans-4-[(1R)-1-(6-{[4-(difluoromethyl)pyridin-2-yl]amino}-4-methyl-2,3′-bipyridin-6′-yl)-1-hydroxyethyl]cyclohexyl}carbonyl)oxy]methyl 1-methyl-1H-pyrazole-4-carboxylate]	8.3 nM
COCCOCCNC(=O)OCOC(=O)[C@H]1CC[C@H]([C@@](C)(O)c2ccc(-c3cc(C)cc(Nc4cc(C(F)F)ccn4)n3)cn2)CC1 [Example 4-3, 3-oxo-2,7,10-trioxa-4-azaundec-1-yl trans-4-[(1R)-1-(6-{[4-(difluoromethyl)pyridin-2-yl]amino}-4-methyl-2,3′-bipyridin-6′-yl)-1-hydroxyethyl]cyclohexanecarboxylate]	2.4 nM
